We go through 1 molecule from patent US9181249B2, “Substituted pyrido[3,4-b]pyrazines as GPR6 modulators” (Takeda Pharmaceutical Company Limited, priority 2013, dated 2015).

In assay [1] the test system is haloperidol-induced catalepsy. Briefly: Example B Haloperidol-Induced Catalepsy In Vivo Rodent Parkinson's Disease Model. The following applies: Rat. The source says:
Haloperidol-Induced Catalepsy In Vivo Rodent Parkinson's Disease Model
The motor symptoms of Parkinson's disease include akinesia, bradykinesia, rigidity, tremor and postural abnormalities and are associated with the loss of nigral dopaminergic cells and a decline in striatal dopamine levels. Administration of haloperidol to rodents leads to a transient parkinsonian-like state that is reversed by the administration of L-Dopa (Duty, S.; Jenner, P. Br. J. Pharmacol. (2011), 164, 1357-1391) and other drugs that have been clinically validated for the treatment of Parkinson's disease. Haloperidol antagonizes dopamine D2 and, to a lesser extent, D1 receptors in medium spiny neurons that comprise the indirect and direct pathways of the motor circuit respectively. The resultant block of striatal dopamine transmission results in abnormal downstream firing within the basal ganglia circuits that is manifest as symptoms of muscle rigidity and catalepsy. Catalepsy has been postulated to reflect the clinical features of Parkinson's disease, whereby patients experience an inability of to initiate movements.
Male Sprague-Dawley rats (Charles River, Calco, Italy) weighing 175-200 g are used. Alternatively, male C57Bl6 mice weighing 25-35 g were used. The cataleptic state was induced by the subcutaneous administration of the dopamine receptor antagonist haloperidol (0.3 mg/kg, sc), 90 min before testing the animals on the vertical grid test. For this test, the rats or mice were placed on the wire mesh cover of a 25 cm×43 cm plexiglass cage placed at an angle of about 70 degrees with the bench table. The subject was placed on the grid with all four legs abducted and extended (“frog posture”). The use of such an unnatural posture is essential for the specificity of this test for catalepsy. The time span from placement of the paws until the first complete removal of one paw (descent latency) was measured maximally for 120 sec for rats. For mice, the front paws of a mouse was placed on a horizontal metal bar raised 2″ above a Plexiglas platform and time was recorded for up to 30 seconds per trial. The test ended when the animal's front paws returned to the platform or after 30 seconds. The test was repeated three times and the average of the three trials was reported as the intensity index of catalepsy.
Catalepsy was measured 30 min, 120 min, and/or 240 min after dosing the subjects a 0.3 mg/kg i.p. dose of haloperidol along with the GPR6 modulator test compound. Test compound plasma and brain levels were determined by collected tissue samples at the end of the experiment, which was either at the 120 or 240 min time point. A representative number of compounds of the invention were administered in a dose range from 0.1 to 100 mg/kg i.p, sc or po in conjunction with haloperidol. The A2a antagonist KW6002 (istradefylline) was dosed at 0.6 mg/kg i.p. as a positive control.

Assay [2] deals with 6-hydroxydopamine lesioned rats (motor activity). As to the kind of experiment: Example C 6-Hydroxydopamine Lesion Model In Vivo Rodent Parkinson's Disease Model. Conditions: adult female rats, bilateral striatal 6-hydroxydopamine lesion, counts for 3 hours after dosing. On the procedure: 6-Hydroxydopamine Lesion Model In Vivo Rodent Parkinson's Disease Model
Adult female rats (10) were first assessed for pre-surgery motor activity using an automated activity tracking system that records beam breaks across the testing arena floor. Beam breaks were summed over the first 3 hours after the animals were placed into the arena and recorded as activity counts. To selectively damage dopaminergic nerve terminals in the striatum, 20 μg of the 6-hydroxydopamine was injected directly into the striatum bilaterally (i.e., on both sides of the brain). After 4 weeks of recovery, the rats were again tested for motor activity, and a significant reduction in activity counts was observed. Vehicle and the compound of Example 47 (0.5% methylcellulose) was orally dosed at 0.1, 1.0, or 10 mg/kg in a cross-over study design (5-10 day wash out period), and after dosing activity counts were measured for 3 hours. At the end of the study period, when each animal had received each treatment once, the data were analyzed. The activity counts (standard error of the mean) for the group pre-surgery and post-surgery and for treated and vehicle control were determined and are provide in Table 3 below: […]

Marks after values point to notes of the source that are not given here.

Turning to `CC(=O)N1CCc2nc(N3CCC(Oc4ccc(F)cc4F)CC3)c(NC(C)C)nc2C1` [Example 47, 1-(2-(4-(2,4-difluorophenoxyl)piperidin-1-yl)-3-(isopropylamino)-7,8-dihydropyrido[3,4-b]pyrazin-6(5H)-yl)ethanone], the “% reversal 30 min” value in assay [1] (0.1 mpk i.p.) is given as −5.7%; in assay [1] (1 mpk i.p.), 39.1%; in assay [1] (10 mpk i.p.), 83.4* %; in assay [1] (30 mpk i.p.) it was 75.7* %. Also, the “% reversal 120 min” value in assay [1] (0.1 mpk i.p.) was 27.3%; in assay [1] (1 mpk i.p.), 57.9* %; in assay [1] (10 mpk i.p.) it was 76.5* %; in assay [1] (30 mpk i.p.), 82.1* %. Moreover, the “activity counts, Mean” value is given as 11422* in assay [2] (orally dosed 0.1 mg/kg), 15334* in assay [2] (orally dosed 1.0 mg/kg) and 19368* in assay [2] (orally dosed 10 mg/kg).
